# Experimental data as given in PMC3156243, “Properties and Crystal Structure of Methylenetetrahydrofolate Reductase from Thermus thermophilus HB8” (PLoS ONE, 2011).
# Molecular target: T1, MTHFR (methylenetetrahydrofolate reductase) (Thermus thermophilus, UniProt Q5SLG6)
# T1 construct: gene TTHA0327
# Test: biochemical
# T1 sequence (Q5SLG6 1-296): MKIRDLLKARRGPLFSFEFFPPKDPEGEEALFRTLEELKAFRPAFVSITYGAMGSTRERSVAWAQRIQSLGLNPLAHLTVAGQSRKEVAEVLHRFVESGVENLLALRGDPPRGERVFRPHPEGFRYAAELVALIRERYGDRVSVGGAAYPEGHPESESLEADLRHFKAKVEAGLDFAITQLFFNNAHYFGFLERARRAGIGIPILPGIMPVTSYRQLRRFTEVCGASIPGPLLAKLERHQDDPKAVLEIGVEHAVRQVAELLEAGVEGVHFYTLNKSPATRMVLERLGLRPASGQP
smiles,measurement,value
CN1c2c(nc(N)[nH]c2=O)NC[C@@H]1CNc1ccc(C(=O)N[C@@H](CCC(=O)O)C(=O)O)cc1 (mixture of isomers) [(6S)-5-CH3-H4folate],Ki,15 ± 6 µM
